The results in this text go back to patent publication US6756209B1, “7-Alkoxycoumarins as CYP2C9 substrates and activity assay” (SmithKline Beecham p.l.c., priority 1998, dated 2004).

Consider `COc1ccc2c(C(F)(F)F)c(CC(=O)O)c(=O)oc2c1`, for which the melting point (in general, the temperature, or range, at which the solid turns liquid) lay within 198.5 to 200 °C.
